# Assay results reported in patent US20260345624A1, “TREATMENT OF PROSTATE CANCER BY PROMOTING PDE4D7” (KONINKLIJKE PHILIPS N.V., priority 2022, published 2026).
# Entries after “also recorded” stand apart in the source; their conditions may differ.
# Columns and labels:
# LNCaP WT cells = assay: xCELLigence real-time proliferation of WT LNCaP cells; format: cell-based; settings: for proliferation of WT LNCaPs: PDE4 activator, 1 and 10 μM
# Experimental: (§1) xCELLigence Real-Time Cell Analysis (RTCA)
# (§2) Real-time cell growth was analysed using the xCELLigence RTCA system (Agilent), which measures real-time cell adhesion across gold microelectrode biosensors on 96 well electronic plates (E-plates) within a 37 °C incubator with 5% CO2. Cellular adhesion influences electrical impedance which is converted into the cell index (CI) via RTCA software. Initial background measurements were recorded with 100 μL RPMI 1640 medium, followed by addition of 100 μL LNCaP cell suspension (10,000 cells/wells) for measurement of CI over time. Approximately 24 h after seeding, cells were treated with specified concentrations of drugs. Negative controls containing either 0.1% DMSO or untreated cells were also included. CI was transformed to normalised CI via the RTCA software to timepoint of treatment.
# [1] = test system: PARP cleavage in LNCaP WT; assay: PARP/cleaved PARP western blot in WT LNCaP; format: cell-based; settings: N=3
# Experimental: (§3) FIG. 12: Ratio of PARP and cleaved PARP (PARPc) by western blot analysis in LNCaP WT and LNCaP PDE4D7 knockdown cell line P1 upon incubation with 0.1% DMSO (control), 10 μM Olaparib, and 10 nM docetaxel including quantitation of western blot bands normalised to DMSO.
# (§4) Cells were lysed in 3T3 lysis buffer (50 mM NaCl, 50 mM NaF, 30 mM sodium pyrophosphate, 25 mM HEPES, 2.5 mM EDTA, 10% (v/v) glycerol, 1% (v/v) Triton X-100; pH 7.5) supplemented with cOmplete™ EDTA-free protease inhibitor cocktail (Sigma-Aldrich). Lysed cells were rotated end-over-end for 30 minutes at 4 °C, then centrifuged for 10 minutes at 13,000 RPM at […]. Supernatants were collected and protein concentration determined via Bradford assay. Equal concentrations of protein samples were separated via SDS-polyacrylamide gel electrophoresis (SDS-PAGE) and transferred onto nitrocellulose membranes for western blot. Membranes were blocked in 5% (w/v) milk powder in TBS-T for 1 h prior to primary and secondary antibody incubations. […]
# [2] = test system: PDE4D7-knockdown LNCaP P1 cells; assay: xCELLigence real-time proliferation of PDE4D7-knockdown P1 LNCaP cells; format: cell-based; settings: for resistance to olaparib, PDE4D7-reduced cells: olaparib 10 and 30 μM
# Text: Stable shRNA-mediated lentiviral transduced LNCaP cell lines were generated by AMSBIO (Table 1). Briefly, shRNA-PDE4D7 was cloned into a lentivector and delivered into LNCaP clone FGC cells (ATCC) via lentivirus (MOI=10). Cells were maintained in puromycin-supplemented medium prior to selection of stably transduced cells. A stable shRNA-PDE4D7 LNCaP cell line was then re-transduced with lentivirus delivering PDE4D7 to generate a re-introduced cell line. Scrambled-shRNA was used as a control. All cells were cultured in RPMI 1640 medium (Gibco D), supplemented with 10% (v/v) foetal bovine serum, 1% (v/v) L-Glutamine and 1% (v/v) penicillin/streptomycin, and stored within a 37 °C incubator with 5% CO2.
# as §1, §2
# [3] = test system: PARP cleavage in LNCaP P1; assay: PARP/cleaved PARP western blot in PDE4D7-knockdown P1 LNCaP; format: cell-based; settings: N=3
# Experimental: as §3, §4
# P1-PDE4D7+/+ LNCaP cells = assay: xCELLigence real-time proliferation of P1 LNCaP cells with PDE4D7 re-expression; format: cell-based
# [4] = test system: cAMP at membrane of P1 LNCaPs; assay: cAMP FRET (CUTie) at plasma membrane of P1 LNCaP; format: cell-based; settings: rolipram
# Experimental: (§5) FIG. 18: Influence of PDE4D7 expression on cAMP dynamics within LNCaPs. Analysis of FRET ratio (YFP/CFP) at cytosol of WT (A) or P1 (C) LNCaPs, or at membrane of WT (B) or P1 (D) LNCaPs upon treatment with rolipram or combined treatment of forskolin+IBMX. (E & F) Real-time growth analysis of WT (G) and P1 (H) cells upon treatment with PDE4 activator MR-L2 (1-10 μM). Slope analysis from 0-48 post-treatment. Mean+/−SEM, N=3, **p<0.01, ***p<0.001.
# (§6) Genetically encoded cAMP-fluorescent resonance energy transfer (FRET) probes were used to investigate CAMP dynamics at subcellular regions in WT and P1 LNCaPs. […] CUTie probes targeting the plasma-membrane (AKAP-79) or cytosol (CYTO-pDUAL) were obtained from the Zaccolo lab (REF). […] Given that PDE4D7 is known to be substantially membrane located [FIG. 1C]
# [5] = test system: cAMP at membrane of WT LNCaPs; assay: cAMP FRET (CUTie) at plasma membrane of WT LNCaP; format: cell-based; settings: rolipram
# Experimental: as §5, §6
# [6] = test system: cAMP at cytosol of WT LNCaPs; assay: cAMP FRET (CUTie) in cytosol of WT LNCaP; format: cell-based; settings: rolipram
# Experimental: as §5, §6
# [7] = test system: cAMP at cytosol of P1 LNCaPs; assay: cAMP FRET (CUTie) in cytosol of P1 LNCaP; format: cell-based; settings: rolipram
# Experimental: as §5, §6
# mCRPC = settings: Lloyd et al., 2020; cited from earlier work
# LNCaP cells = settings: Feiersinger et al., 2018; cited from earlier work
# advanced PCa = settings: in combination with docetaxel; cited from earlier work
smiles,measurement,setting,value
"CC(=O)O[C@@]12CO[C@@H]1C[C@H](O)[C@@]1(C)C(=O)[C@H](O)C3=C(C)[C@@H](OC(=O)[C@H](O)[C@@H](NC(=O)OC(C)(C)C)c4ccccc4)C[C@@](O)([C@@H](OC(=O)c4ccccc4)[C@H]21)C3(C)C [docetaxel, Docetaxel]",growth of WT LNCaPs,LNCaP WT cells; docetaxel 10 μM,effective in WT
same,growth of WT LNCaPs vs DMSO,"LNCaP WT cells; docetaxel, all concentrations (5-25 μM), slope 0-48 h",significantly reduced growth
same,"PARP cleavage, WT LNCaP",[1]; docetaxel 10 nM,increased PARP cleavage
same,growth of P1 cells,[2]; docetaxel 10 μM,no effect
same,growth of PDE4D7-knockdown LNCaPs vs DMSO,"[2]; docetaxel, all concentrations (5-25 μM) except 10 μM, slope 0-48 h",significantly reduced growth
same,"cleaved PARP ratio, P1 LNCaP",[3]; docetaxel 10 nM,No increase in cleaved PARP ratio
same,"sensitivity to docetaxel after PDE4D7 re-introduction, vs P1",P1-PDE4D7+/+ LNCaP cells; docetaxel 10 μM,more sensitive to docetaxel treatment than P1
COc1ccc(C2CNC(=O)C2)cc1OC1CCCC1 (stereo not shown) [rolipram],"FRET ratio, membrane, P1",[4],no obvious difference in FRET ratio
same,"FRET ratio / cAMP, membrane, WT",[5],"downregulation of FRET ratio in the membrane compartment of WT LNCaPs, indicating an increase in cAMP concentration"
same,"FRET ratio, cytosol, WT",[6],no observable difference
same,"FRET ratio, cytosol, P1",[7],no observable difference
"C[C@@H]1COCCN1c1cc(C2([S@](C)(=N)=O)CC2)nc(-c2cc[nH]c3nccc2-3)n1 [ceralasertib, Ceralasertib]","growth inhibition, WT",LNCaP WT cells; ceralasertib 10-30 μM,most significant growth inhibition
same,"growth inhibition independent of PDE4D7 expression, WT","LNCaP WT cells; summary statement, WT vs P1",reduce tumor growth independent of PDE4D7 expression levels; also recorded: inhibit LNCaP cell growth irrespective of PDE4D7 expression status
same,"sensitivity from growth curves, PDE4D7-knockdown (compared with WT)",[2]; ceralasertib 0-30 μM,highly susceptible to ATR-inhibition via ceralasertib
same,"growth inhibition, P1",[2]; ceralasertib 10-30 μM,most significant growth inhibition
same,sensitivity of PDE4D7-knockdown cells,[2]; ceralasertib 10-30 μM,extremely sensitive to ATR inhibition via ceralasertib
same,"growth inhibition independent of PDE4D7 expression, P1","[2]; summary statement, WT vs P1",reduce tumor growth independent of PDE4D7 expression levels; also recorded: inhibit LNCaP cell growth irrespective of PDE4D7 expression status
same,synergistic effects in combination with olaparib,mCRPC,enhance synergistic effects in combination with olaparib in mCRPC; also recorded: enhance synergistic effects in combination with olaparib in metastatic CRPC
"O=C(c1cc(Cc2n[nH]c(=O)c3ccccc23)ccc1F)N1CCN(C(=O)C2CC2)CC1 [olaparib, Olaparib]",LNCaP WT proliferation,LNCaP WT cells; olaparib 0-30 μM,decreased in a dose-dependent manner
same,"growth rate (slope analysis), WT","LNCaP WT cells; olaparib 3, 10 and 30 μM, slope 0-30 h",significant reductions in WT growth
same,"PARP cleavage, WT LNCaP",[1]; olaparib 10 μM,increased PARP cleavage
same,effect on PDE4D7-deficient LNCaP proliferation,[2]; olaparib 0-30 μM,minimal
same,"growth rate (slope analysis), P1","[2]; olaparib 0.3 and 1 μM, slope 0-30 h",unexpected reduction in slope
same,"resistance to olaparib, PDE4D7-reduced cells",[2],resistant to olaparib; also recorded: resistance
same,"resistance to olaparib, PDE4D7-reduced cells",[2]; listed as Olaparib,resistance
same,resistance to PARP inhibition via olaparib upon PDE4D7 knockdown,[2]; overall conclusion,resistant to PARP inhibition via olaparib; also recorded: confers resistance to PARP-inhibition via olaparib; also recorded: enhances resistance to olaparib
same,"cleaved PARP ratio, P1 LNCaP",[3]; olaparib 10 μM,No increase in cleaved PARP ratio
same,effect against LNCaP cells,LNCaP cells,effective against LNCaP cells
same,sensitivity to olaparib after PDE4D7 re-introduction,P1-PDE4D7+/+ LNCaP cells; olaparib 10 μM,more sensitive to olaparib treatment; also recorded: re-sensitised
same,sensitivity to olaparib after PDE4D7 re-introduction,"P1-PDE4D7+/+ LNCaP cells; olaparib 10 μM, listed as Olaparib",enhances sensitivity to Olaparib
same,growth vs olaparib-treated P1 and DMSO-treated P1-PDE4D7+/+ cells,"P1-PDE4D7+/+ LNCaP cells; olaparib 10 μM, slope 0-48 h",statistically significant downregulation in growth
COC(=O)Nc1nc2ccc(C(=O)c3ccccc3)cc2[nH]1 [mebendazole],WT cell growth,LNCaP WT cells; mebendazole 1-10 μM,significant downregulation of cell growth in a dose-dependent manner
same,potential in advanced PCa treatment,advanced PCa,showed potential in advanced PCa treatment in combination with docetaxel
same,effect on P1 cells,"[2]; mebendazole 1-10 μM, compared with WT","far more substantial and more significant, with initiation of immediate cell death in the cells at both concentrations; also recorded: PDE4D7-knockdown confers sensitivity to mebendazole in comparison to WT LNCaPs"
CCc1nc(-c2ccc(Cl)c(F)c2)nn1CC(=O)NCc1cc(Cl)cc(Cl)c1 [ML-R2],proliferation of WT LNCaPs,LNCaP WT cells,no effect on proliferation in WT LNCaPs at either concentration
same,proliferation of WT LNCaPs,LNCaP WT cells; listed as MLR2,no effect on growth of WT LNCaPs
same,proliferation of WT LNCaPs,LNCaP WT cells; listed as MR-L2,no effect on proliferation in WT LNCaPs
same,growth of P1 cells,"[2]; PDE4 activator, 1-10 μM",inhibition of cell growth in P1 cells
same,growth of P1 cells,"[2]; PDE4 activator, 1-10 μM, listed as MLR2",attenuates growth of P1 LNCaPs
same,growth of P1 cells,"[2]; PDE4 activator, 1-10 μM, listed as MR-L2",inhibition of growth in P1 cells
same,MLR2 sensitivity after PDE4D7 reintroduction to P1,"P1-PDE4D7+/+ LNCaP cells; PDE4 activator, 10 μM",rescues phenotype of WT LNCaPs on MLR2 sensitivity
CC#C[C@]1(O)CC[C@H]2[C@@H]3CCC4=CC(=O)CCC4=C3[C@@H](c3ccc(N(C)C)cc3)C[C@@]21C [mifepristone],growth of WT LNCaPs,LNCaP WT cells; mifepristone 30 μM,successfully inhibited growth
same,WT cell proliferation vs DMSO,LNCaP WT cells; mifepristone 0.3-10 μM,neither WT or P1 cell proliferation were reduced compared to DMSO
same,proliferation of P1 LNCaPs,[2]; mifepristone 30 μM,significantly enhanced proliferation
same,"growth curve over time, P1 LNCaPs","[2]; mifepristone 30 μM, compared to lower concentrations","initial growth was inhibited compared to lower concentrations, however this effect eventually wore off"
same,P1 cell proliferation vs DMSO,[2]; mifepristone 0.3-10 μM,neither WT or P1 cell proliferation were reduced compared to DMSO
